# Reference: publication PMC6941952, “A homogeneous bioluminescent immunoassay to probe cellular signaling pathway regulation” (Communications Biology, 2020)
# Tested on: phospho-IκBα (Ser32)
# Experiment: NanoBiT cell-based immunoassay, phosphorylated IκBα in MCF-7 cells
# Set-up: species or system human
# Settings: plate #2; for Subtract reagent background / Raw data: TNF
# Procedure: Prior to NanoBiT Cell-Based Immunoassay, 50,000 cells were seeded in 160 µl of complete growth media per well of a 96-well plate and incubated overnight. The cells were checked under microscope and it was determined that 50,000 cells per well in 96-well plate is under 90% confluency for all cells tested. If necessary, the cell culture media were replaced with serum-free media after the cells were stably adherent on the plate and incubated overnight. To treat cells with activators or inhibitors, medium was changed to 30 µl of medium containing inhibitors. If activation of a specific pathway is needed, the cells were stimulated with 10 µl of medium containing activators. To lyse the cells, 10 µl of lysis buffer containing 0.1% digitonin diluted in 1X immunoassay buffer with protease and phosphatase inhibitors was added and the plates were mixed vigorously for 20 min. Then, 50 µl of an antibody mix containing two primary antibodies against the target protein and NanoBiT detecting antibodies (0.3 µl each per well), diluted in 1X immunoassay buffer was added to the lysates. The plates were incubated at 23 °C for 90 min, followed by the addition of 25 µl of Nano-Glo® reagent consisting of Nano-Glo® Luciferase Assay Substrate mixed with 1X immunoassay buffer. Luminescence was measured using a plate-reading luminometer.
# In all, 50,000 MCF-7 cells were seeded in 160 µl complete growth medium per well of a 96-well plate and incubated overnight. Half of the cells were treated with 50 ng per ml TNFα and half with vehicle. Cells were lysed as described above and a mixture of NanoBiT secondary antibodies with primary antibodies at the matrix concentrations described in Fig. 2a were added. After 90 min incubation, the Nano-Glo® reagent was added to the reactions as described above and luminescence was measured using a plate-reading luminometer.
# Single dose or dose response inhibitor treatments were performed prior to activation of the pathways as follows. For IκBα, the cells were treated in 30 µl medium with IKK16 or MG132 for 60 min before the addition of 10 µl of DMEM containing appropriate concentration of TNFα. To measure phosphorylation of AKT or STAT3, the corresponding NanoBiT immunoassays were developed with MCF-7 or A431 cells, respectively, according the same scheme used to develop the IκBα assay using the primary antibodies for AKT and STAT3 described in the reagents section. For the AKT assay, MCF-7 cells were incubated overnight in phenol-red free DMEM medium (Gibco #21063-029) without serum. Treatment with LY294002 was performed in 30 µl medium and cells were incubated for 60 min before the addition of 1 µM Insulin. To measure STAT3 phosphorylation, A431 cells were incubated overnight in DMEM medium without serum. […] After addition of the stimulators, the cells were incubated for additional times as follows. IκBα phosphorylation and degradation analyses required both time courses and single time points as described in figures. […] The NanoBiT immunoassay protocol was followed as described above.
# All 96-well assay plates were read using a GloMax® 96 Microplate Luminometer from Promega. The instrument was set to 0.5 s integration time. In order to obtain net change of signal, the reagent background values (signal from the well containing all reagent except primary antibodies) were subtracted from the sample values. To plot and analyze the data, Microsoft Excel and GraphPad Prism® Software were used. IC50 values were determined by using a nonlinear regression fit to a sigmoidal dose response (variable slope).
# [1] = IkB Ab #2 75 ng/ml, P-IkB Ab #1 300 ng/ml
# [2] = IkB Ab #2 75 ng/ml, P-IkB Ab #1 600 ng/ml
# [3] = IkB Ab #2 75 ng/ml, P-IkB Ab #1 1200 ng/ml
# [4] = IkB Ab #2 150 ng/ml, P-IkB Ab #1 75 ng/ml
# [5] = IkB Ab #2 150 ng/ml, P-IkB Ab #1 150 ng/ml
# [6] = IkB Ab #2 150 ng/ml, P-IkB Ab #1 300 ng/ml
# [7] = IkB Ab #2 150 ng/ml, P-IkB Ab #1 600 ng/ml
# [8] = IkB Ab #2 150 ng/ml, P-IkB Ab #1 1200 ng/ml
# [9] = IkB Ab #2 300 ng/ml, P-IkB Ab #1 75 ng/ml
# [10] = IkB Ab #2 300 ng/ml, P-IkB Ab #1 150 ng/ml
# [11] = IkB Ab #2 300 ng/ml, P-IkB Ab #1 300 ng/ml
# [12] = IkB Ab #2 300 ng/ml, P-IkB Ab #1 600 ng/ml
# [13] = IkB Ab #2 300 ng/ml, P-IkB Ab #1 1200 ng/ml
# [14] = IkB Ab #2 600 ng/ml, P-IkB Ab #1 75 ng/ml
# [15] = IkB Ab #2 600 ng/ml, P-IkB Ab #1 150 ng/ml
# [16] = IkB Ab #2 600 ng/ml, P-IkB Ab #1 300 ng/ml
# [17] = IkB Ab #2 600 ng/ml, P-IkB Ab #1 600 ng/ml
# [18] = IkB Ab #2 600 ng/ml, P-IkB Ab #1 1200 ng/ml
# [19] = IkB Ab #2 1200 ng/ml, P-IkB Ab #1 75 ng/ml
# [20] = IkB Ab #2 1200 ng/ml, P-IkB Ab #1 150 ng/ml
# [21] = IkB Ab #2 1200 ng/ml, P-IkB Ab #1 300 ng/ml
# [22] = IkB Ab #2 1200 ng/ml, P-IkB Ab #1 600 ng/ml
# [23] = IkB Ab #2 1200 ng/ml, P-IkB Ab #1 1200 ng/ml
substance,measurement,setting,value
TNFα,Subtract reagent background,"IkB Ab #2 75 ng/ml, P-IkB Ab #1 150 ng/ml",2170
same,Raw data,[1],21130
same,Subtract reagent background,[1],2610
same,Raw data,[2],21060
same,Subtract reagent background,[2],2540
same,Raw data,[3],19400
same,Subtract reagent background,[3],880
same,Raw data,[4],21700
same,Subtract reagent background,[4],3180
same,Raw data,[5],21690
same,Subtract reagent background,[5],3170
same,Raw data,[6],22220
same,Subtract reagent background,[6],3700
same,Raw data,[7],20830
same,Subtract reagent background,[7],2310
same,Raw data,[8],19240
same,Subtract reagent background,[8],720
same,Raw data,[9],22450
same,Subtract reagent background,[9],3930
same,Raw data,[10],22650
same,Subtract reagent background,[10],4130
same,Raw data,[11],23650
same,Subtract reagent background,[11],5130
same,Raw data,[12],20040
same,Subtract reagent background,[12],1520
same,Raw data,[13],19000
same,Subtract reagent background,[13],480
same,Raw data,[14],22640
same,Subtract reagent background,[14],4120
same,Raw data,[15],23720
same,Subtract reagent background,[15],5200
same,Raw data,[16],23520
same,Subtract reagent background,[16],5000
same,Raw data,[17],22360
same,Subtract reagent background,[17],3840
same,Raw data,[18],20110
same,Subtract reagent background,[18],1590
same,Raw data,[19],22600
same,Subtract reagent background,[19],4080
same,Raw data,[20],23950
same,Subtract reagent background,[20],5430
same,Raw data,[21],23940
same,Subtract reagent background,[21],5420
same,Raw data,[22],23180
same,Subtract reagent background,[22],4660
same,Raw data,[23],21820
same,Subtract reagent background,[23],3300
same,Fold change (TNF-treated /Non-treated),"IkB Ab #2 (Mouse) 75 ng/ml, P-IkB Ab #1 (Rabbit) 75 ng/ml",1.212
same,Fold change (TNF-treated /Non-treated),"IkB Ab #2 (Mouse) 75 ng/ml, P-IkB Ab #1 (Rabbit) 75 ng/ml, listed as TNF",1.2
same,Fold change (TNF-treated /Non-treated),"IkB Ab #2 (Mouse) 75 ng/ml, P-IkB Ab #1 (Rabbit) 150 ng/ml",1.09
same,Fold change (TNF-treated /Non-treated),"IkB Ab #2 (Mouse) 75 ng/ml, P-IkB Ab #1 (Rabbit) 150 ng/ml, listed as TNF",1.1
same,Fold change (TNF-treated /Non-treated),"IkB Ab #2 (Mouse) 75 ng/ml, P-IkB Ab #1 (Rabbit) 300 ng/ml",1.197
same,Fold change (TNF-treated /Non-treated),"IkB Ab #2 (Mouse) 75 ng/ml, P-IkB Ab #1 (Rabbit) 300 ng/ml, listed as TNF",1.2
same,Fold change (TNF-treated /Non-treated),"IkB Ab #2 (Mouse) 75 ng/ml, P-IkB Ab #1 (Rabbit) 600 ng/ml",1.104
same,Fold change (TNF-treated /Non-treated),"IkB Ab #2 (Mouse) 75 ng/ml, P-IkB Ab #1 (Rabbit) 1200 ng/ml",0.4356
same,Fold change (TNF-treated /Non-treated),"IkB Ab #2 (Mouse) 150 ng/ml, P-IkB Ab #1 (Rabbit) 150 ng/ml",1.447
same,Fold change (TNF-treated /Non-treated),"IkB Ab #2 (Mouse) 150 ng/ml, P-IkB Ab #1 (Rabbit) 150 ng/ml, listed as TNF",1.4
same,Fold change (TNF-treated /Non-treated),"IkB Ab #2 (Mouse) 150 ng/ml, P-IkB Ab #1 (Rabbit) 300 ng/ml",1.271
same,Fold change (TNF-treated /Non-treated),"IkB Ab #2 (Mouse) 150 ng/ml, P-IkB Ab #1 (Rabbit) 300 ng/ml, listed as TNF",1.3
same,Fold change (TNF-treated /Non-treated),"IkB Ab #2 (Mouse) 150 ng/ml, P-IkB Ab #1 (Rabbit) 600 ng/ml",0.8684
same,Fold change (TNF-treated /Non-treated),"IkB Ab #2 (Mouse) 150 ng/ml, P-IkB Ab #1 (Rabbit) 600 ng/ml, listed as TNF",0.9
same,Fold change (TNF-treated /Non-treated),"IkB Ab #2 (Mouse) 150 ng/ml, P-IkB Ab #1 (Rabbit) 1200 ng/ml",0.2618
same,Fold change (TNF-treated /Non-treated),"IkB Ab #2 (Mouse) 150 ng/ml, P-IkB Ab #1 (Rabbit) 1200 ng/ml, listed as TNF",0.262
same,Fold change (TNF-treated /Non-treated),"IkB Ab #2 (Mouse) 300 ng/ml, P-IkB Ab #1 (Rabbit) 150 ng/ml",1.886
same,Fold change (TNF-treated /Non-treated),"IkB Ab #2 (Mouse) 300 ng/ml, P-IkB Ab #1 (Rabbit) 150 ng/ml, listed as TNF",1.9
same,Fold change (TNF-treated /Non-treated),"IkB Ab #2 (Mouse) 300 ng/ml, P-IkB Ab #1 (Rabbit) 300 ng/ml",2.24
same,Fold change (TNF-treated /Non-treated),"IkB Ab #2 (Mouse) 300 ng/ml, P-IkB Ab #1 (Rabbit) 300 ng/ml, listed as TNF",2.2
same,Fold change (TNF-treated /Non-treated),"IkB Ab #2 (Mouse) 300 ng/ml, P-IkB Ab #1 (Rabbit) 600 ng/ml",1.197
same,Fold change (TNF-treated /Non-treated),"IkB Ab #2 (Mouse) 300 ng/ml, P-IkB Ab #1 (Rabbit) 600 ng/ml, listed as TNF",1.2
same,Fold change (TNF-treated /Non-treated),"IkB Ab #2 (Mouse) 300 ng/ml, P-IkB Ab #1 (Rabbit) 1200 ng/ml",0.3429
same,Fold change (TNF-treated /Non-treated),"IkB Ab #2 (Mouse) 300 ng/ml, P-IkB Ab #1 (Rabbit) 1200 ng/ml, listed as TNF",0.343
same,Fold change (TNF-treated /Non-treated),"IkB Ab #2 (Mouse) 600 ng/ml, P-IkB Ab #1 (Rabbit) 75 ng/ml",2.559
same,Fold change (TNF-treated /Non-treated),"IkB Ab #2 (Mouse) 600 ng/ml, P-IkB Ab #1 (Rabbit) 75 ng/ml, listed as TNF",2.6
same,Fold change (TNF-treated /Non-treated),"IkB Ab #2 (Mouse) 600 ng/ml, P-IkB Ab #1 (Rabbit) 150 ng/ml",2.826
same,Fold change (TNF-treated /Non-treated),"IkB Ab #2 (Mouse) 600 ng/ml, P-IkB Ab #1 (Rabbit) 150 ng/ml, listed as TNF",2.8
same,Fold change (TNF-treated /Non-treated),"IkB Ab #2 (Mouse) 600 ng/ml, P-IkB Ab #1 (Rabbit) 300 ng/ml",2.155
same,Fold change (TNF-treated /Non-treated),"IkB Ab #2 (Mouse) 600 ng/ml, P-IkB Ab #1 (Rabbit) 300 ng/ml, listed as TNF",2.2
same,Fold change (TNF-treated /Non-treated),"IkB Ab #2 (Mouse) 600 ng/ml, P-IkB Ab #1 (Rabbit) 600 ng/ml",2.11
same,Fold change (TNF-treated /Non-treated),"IkB Ab #2 (Mouse) 600 ng/ml, P-IkB Ab #1 (Rabbit) 600 ng/ml, listed as TNF",2.1
same,Fold change (TNF-treated /Non-treated),"IkB Ab #2 (Mouse) 600 ng/ml, P-IkB Ab #1 (Rabbit) 1200 ng/ml",0.8281
